Experimental data published in patent publication US20220064127A1, “PLATELET AGGREGATION INHIBITOR, PREPARATION AND USES THEREOF” (SHENYANG HINEWY PHARMACEUTICAL TECHNOLOGY CO., LTD., priority 2020, published 2022).

tested on: ADP-Induced Platelet Aggregation; assay: Inhibition of ADP-induced platelet aggregation in rabbit platelet-rich plasma (microplate method); type: cell-based; conditions: Oryctolagus cuniculus, Platelet; 30 μM, rabbit PRP, inducer ADP; read-out: Inhibition rate of target compounds on platelet aggregation at 30 μM
Protocol: Example 62 Investigation on Inhibition of ADP-Induced Platelet Aggregation in Rabbit
A blood sample was collected from ear vein of a healthy male rabbit, added with 3.8% sodium citrate for anticoagulation and then centrifuged at 800 r/min for 10 min to prepare platelet-rich plasma (PRP) and at 3,000 r/min for 10 min to prepare platelet-poor plasma (PPP). The investigation on the plasma should be performed within 0.5-3 h after the preparation.
2. Determination of Platelet Aggregation by Microplate Method
The drugs to be tested were weighed and added with an appropriate amount of DMSO to prepare a series of 10 mM stock solutions, which were respectively diluted to prepare 10× stock solutions with normal saline for further use.
Several wells of a microplate were selected as test wells, which were added with 135 μL of PRP and then respectively added with 15 μL of the 10× stock solutions. A well in which 135 μL of PRP and 15 μL of normal saline were added was used as the vehicle control, and a well in which 135 μL of PPP and 15 μL of normal saline were added was used as the blank control. Duplicate wells were set for each test well. The plate was shaken, incubated at 37° C. for 5 min, and then measured for A0 at 655 nm. Subsequently, the microplate was added with 15 μL of an inducer […] (ADP) working solution (25 μmol/L) in each well, incubated at 37° C. under shaking and measured at 655 nm for A1, where the incubation time was determined according to the time in the pre-experiment when the maximum aggregation appeared. The platelet aggregation rate (AR) and platelet aggregation inhibition rate (AIR) were calculated according to the following formulas:
AR=(1−ARtest sample/ARcontrol)

Structure (SMILES)	inhibition at 30 µM [%]
CCOC(=O)c1c(C)nc(-c2ccccc2)n1OC [LY-25, ethyl 4-methyl-2-phenyl-1-methoxy-1H-imidazole-5-carboxylate]	24.1
CCOC(=O)c1[nH]c(-c2cccc(C#N)c2)nc1C [LY-29, ethyl 2-(3-cyanophenyl)-4-methyl-1H-imidazole-5-carboxylate]	32.5
CCOC(=O)c1c(C)nc(-c2cccc(C#N)c2)n1OCCC(=O)O [LY-26i, 3-{[2-(3-cyanophenyl)-5-(ethoxycarbonyl)-4-methyl-1H-imidazol-1-yl]oxy}propionic acid]	24.4
CCOC(=O)c1c(C)nc(-c2cccc(C#N)c2)n1OCC(N)=O [LY-26h, ethyl 1-(2-amino-2-oxoethoxy)-2-(3-cyanophenyl)-4-methyl-1H-imidazole-5-carboxylate]	18.9
CCOC(=O)c1c(C)nc(-c2cccc(C#N)c2)n1OCc1cccc(C#N)c1 [LY-26x, ethyl 1-[(3-cyanobenzyl)oxy]-2-(3-cyanophenyl)-4-methyl-1H-imidazole-5-carboxylate]	3.21

same assay, conditions: Oryctolagus cuniculus, Platelet; rabbit PRP, inducer ADP, absorbance 655 nm; read-out: IC50 (Mean ± SE), ADP-induced platelet aggregation

Structure (SMILES)	IC50 [µM]
CCOC(=O)c1c(C)nc(-c2cccc(C#N)c2)n1O [LY-10, ethyl 2-(3-cyanophenyl)-1-hydroxy-4-methyl-1H-imidazole-5-carboxylate]	17.6 ± 0.952
CCCNC(=O)c1c(C)nc(-c2cccc(C#N)c2)n1OC [LY-28a, 4-methyl-2-(3-cyanophenyl)-1-methoxy-N-propyl-1H-imidazole-5-carboxamide]	9.57 ± 0.226
CCOC(=O)c1c(C)nc(-c2cccc(C#N)c2)n1OCc1ccc([N+](=O)[O-])cc1 [LY-26v, ethyl 2-(3-cyanophenyl)-4-methyl-1-[(4-nitrobenzyl)oxy]-1H-imidazole-5-carboxylate]	8.75 ± 0.159
CCOC(=O)c1c(C)nc(-c2cccc(C#N)c2)n1OCc1ccc(Cl)cc1 [LY-26q, ethyl 1-[(4-chlorobenzyl)oxy]-2-(3-cyanophenyl)-4-methyl-1H-imidazole-5-carboxylate]	6.83 ± 0.265
CCOC(=O)c1c(C)nc(-c2ccc(OCc3ccccc3)c(C#N)c2)n1O [LY-7b, ethyl 2-(3-cyano-4-benzyloxy)phenyl-1-hydroxy-4-methyl-1H-imidazole-5-carboxylate]	19 ± 0.317
CCOn1c(-c2cccc(C#N)c2)nc(C)c1C(=O)O [LY-27b, 4-methyl-2-(3-cyanophenyl)-1-ethoxy-1H-imidazole-5-carboxylic acid]	9.71 ± 0.557
CCOC(=O)c1c(C)nc(-c2cccc(C#N)c2)n1OCc1cccc(Cl)c1 [LY-26p, ethyl 1-[(3-chlorobenzyl)oxy]-2-(3-cyanophenyl)-4-methyl-1H-imidazole-5-carboxylate]	19.4 ± 0.355
CCOC(=O)c1c(C)nc(-c2ccc(O)c(C#N)c2)n1O [LY-8b, ethyl 2-(3-cyano-4-hydroxyphenyl)-1-hydroxy-4-methyl-1H-imidazole-5-carboxylate]	18.3 ± 1.03
CCOC(=O)c1c(C)nc(-c2cccc(C#N)c2)n1OCc1ccc(C)cc1 [LY-26s, ethyl 2-(3-cyanophenyl)-4-methyl-1-[(4-methylbenzyl)oxy]-1H-imidazole-5-carboxylate]	6.31 ± 0.399
CCOC(=O)c1c(C)nc(-c2cccc(C#N)c2)n1OC [LY-26a, ethyl 2-(3-cyanophenyl)-1-methoxy-4-methyl-1H-imidazole-5-carboxylate]	9.13 ± 0.346
COn1c(-c2cccc(C#N)c2)nc(C)c1C(=O)NC(C)C [LY-28b, 4-methyl-2-(3-cyanophenyl)-1-methoxy-N-isopropyl-1H-imidazole-5-carboxamide]	11.2 ± 0.966
COn1c(-c2cccc(C#N)c2)nc(C)c1C(=O)O [LY-27a, 4-methyl-2-(3-cyanophenyl)-1-methoxy-1H-imidazole-5-carboxylic acid]	7.99 ± 0.217
CCOC(=O)c1c(C)nc(-c2cccc(C#N)c2)n1OCc1ccccc1Cl [LY-26o, ethyl 1-[(2-chlorobenzyl)oxy]-2-(3-cyanophenyl)-4-methyl-1H-imidazole-5-carboxylate]	8.71 ± 0.242
CCOC(=O)c1c(C)nc(-c2ccccc2C#N)n1OC [LY-19, ethyl 4-methyl-2-(2-cyanophenyl)-1-methoxy-1H-imidazole-5-carboxylate]	14.86 ± 0.0568
CCOC(=O)c1c(C)nc(-c2cccc(C#N)c2)n1OCc1ccccc1 [LY-26k, ethyl 1-(benzyloxy)-2-(3-cyanophenyl)-4-methyl-1H-imidazole-5-carboxylate]	5.93 ± 0.265
CCOC(=O)c1c(C)nc(-c2cccc(C#N)c2)n1OCc1ccc(C(=O)OC)cc1 [LY-26u, ethyl 2-(3-cyanophenyl)-1-{[4-(methoxycarbonyl)benzyl]oxy}-4-methyl-1H-imidazole-5-carboxylate]	9.47 ± 0.856
CCOC(=O)c1c(C)nc(-c2cccc(C#N)c2)n1OCC [LY-26b, ethyl 2-(3-cyanophenyl)-1-ethoxy-4-methyl-1H-imidazole-5-carboxylate]	16.5 ± 1.07

Structure (SMILES)	IC50 [µM]
CCOC(=O)c1c(C)nc(-c2cccc(C#N)c2)n1OCc1ccc(Br)cc1 [LY-26r, ethyl 1-[(4-bromobenzyl)oxy]-2-(3-cyanophenyl)-4-methyl-1H-imidazole-5-carboxylate]	24.6 ± 0.895
CCOC(=O)c1c(C)nc(-c2ccc(OCC(C)C)c(C#N)c2)n1OC(C)=O [LY-8a, ethyl 1-acetoxy-2-(3-cyano-4-isobutoxyphenyl)-4-methyl-1H-imidazole-5-carboxylate]	5.214 ± 0.0152
CCOCCOn1c(-c2cccc(C#N)c2)nc(C)c1C(=O)OCC [LY-26e, ethyl 2-(3-cyanophenyl)-1-(2-ethoxyethoxy)-4-methyl-1H-imidazole-5-carboxylate]	6.25 ± 0.21
CCOC(=O)c1c(C)nc(-c2cccc(C#N)c2)n1OC(C)C [LY-26c, ethyl 2-(3-cyanophenyl)-1-isopropoxy-4-methyl-1H-imidazole-5-carboxylate]	6.74 ± 0.326
Cc1ccc(COn2c(-c3cccc(C#N)c3)nc(C)c2C(=O)O)cc1 [LY-27s, 4-methyl-2-(3-cyanophenyl)-1-(4-methylbenzyl)oxy-1H-imidazole-5-carboxylic acid]	6.56 ± 0.357
CCOC(=O)c1c(C)nc(-c2cccc(C#N)c2)n1OCCCO [LY-26f, ethyl 2-(3-cyanophenyl)-1-(3-hydroxypropoxy)-4-methyl-1H-imidazole-5-carboxylate]	11.4 ± 0.213
Cc1nc(-c2cccc(C#N)c2)n(OCc2ccc(C#N)cc2)c1C(=O)O [LY-27y, 4-methyl-2-(3-cyanophenyl)-1-(4-cyanobenzyl)oxy-1H-imidazole-5-carboxylic acid]	3.88 ± 0.269
CCOC(=O)c1c(-c2ccccc2)nc(-c2cccc(C#N)c2)n1O [LY-16, ethyl 2-(3-cyanophenyl)-1-hydroxy-4-phenyl-1H-imidazole-5-carboxylate]	19.87 ± 0.126
Cc1nc(-c2cccc(C#N)c2)n(OCc2ccccc2)c1C(=O)O [LY-27k, 4-methyl-2-(3-cyanophenyl)-1-benzyloxy-1H-imidazole-5-carboxylic acid]	6.24 ± 0.324
CCOC(=O)c1c(C)nc(-c2cccc(C#N)c2)n1OCc1ccc(OC)cc1 [LY-26t, ethyl 2-(3-cyanophenyl)-1-[(4-methoxybenzyl)oxy]-4-methyl-1H-imidazole-5-carboxylate]	6.83 ± 0.0856
CCOC(=O)c1c(C)nc(-c2cccc(C#N)c2)n1OCc1ccccc1C#N [LY-26w, ethyl 1-[(2-cyanobenzyl)oxy]-2-(3-cyanophenyl)-4-methyl-1H-imidazole-5-carboxylate]	9.38 ± 0.565
CCOC(=O)c1c(C)nc(-c2cccc(C#N)c2)n1C [LY-30a, ethyl 2-(3-cyanophenyl)-1,4-dimethyl-1H-imidazole-5-carboxylate]	22.1 ± 0.703
CCOC(=O)c1c(C)nc(-c2cccc(C#N)c2)n1OCc1cccc(F)c1 [LY-26m, ethyl 2-(3-cyanophenyl)-1-[(3-fluorobenzyl)oxy]-4-methyl-1H-imidazole-5-carboxylate]	22.4 ± 1.36
CCOC(=O)c1c(C)nc(-c2ccc(C#N)cc2)n1OC [LY-22, ethyl 4-methyl-2-(4-cyanophenyl)-1-methoxy-1H-imidazole-5-carboxylate]	13.4 ± 1.03
CCOC(=O)c1c(C)nc(-c2cccc(-c3noc(=O)[nH]3)c2)n1O [LY-15, ethyl 1-hydroxy-4-methyl-2-[3-(5-oxo-4,5-dihydro-1,2,4-oxadiazol-3-yl)phenyl]-1H-imidazole-5-carboxylate]	22.1 ± 0.299
CCOC(=O)c1c(C)nc(-c2cccc(C#N)c2)n1OCc1ccncc1 [LY-26j, ethyl 2-(3-cyanophenyl)-4-methyl-1-(pyridin-4-methoxy)-1H-imidazole-5-carboxylate]	6.196 ± 0.0526
COn1c(-c2cccc(C#N)c2)nc(C)c1C(=O)Nc1ccccc1 [LY-28c, 2-(3-cyanophenyl)-1-methoxy-4-methyl-N-phenyl-1H-imidazole-5-carboxamide]	15.9 ± 1.2

same assay, conditions: rabbit PRP, inducer ADP, absorbance 655 nm; read-out: IC50 (Mean ± SE), ADP-induced platelet aggregation

Structure (SMILES)	IC50 [µM]
CCOC(=O)c1c(C)nc(-c2ccc(OCC(C)C)c(C#N)c2)n1O [LY-7a, ethyl 2-(3-cyano-4-isobutyloxy)phenyl-1-hydroxy-4-methyl-1H-imidazole-5-carboxylate]	16.8 ± 0.874
